Experimental data published in BindingDB's records for patent US20250066318 (Prothena Biosciences, 2025).

biological target: Dual specificity tyrosine-phosphorylation-regulated kinase 1A (Homo sapiens, UniProt Q13627); test: DYRK1A Inhibition Assay
Description: 1. Add 5 μL enzyme & substrate mixture to each well in Column 2-23 and A24-H24 wells of the 384-well assay plate;2. Add 5 μL 0% Phosphorylation control to A1-H1 and I24-P24 wells of the assay plate;3. Add 5 μL 100% Phosphorylation control to I1-P1 wells of the assay plate;4. Spin the assay plate (1000 rpm, 1 minute @23° C.);5. Incubate enzyme with compounds for 15 minutes at 23° C.;6. Add 5 μL ATP solution to each well of the assay plate;7. Spin the plate (1000 rpm, 1 minute @23° C.);8. Incubate the assay plate for 90 minutes at 23° C.;9. Add 10 μL Development reagent A to each well of the assay plate;10. Centrifuge the plate at 1000 rpm about 15 seconds and seal a film over assay plate. Incubate the assay plate for 30 minutes at 23° C.11. Read assay plates on Envision (see Tables A, B, and C).Final Compound ConcentrationsAssay buffer: 50 mM Hepes pH7.5, 10 mM MgCl2, 1 mM EDTA, 0.01% Brij-35DYRK1A: 1 nMATP: 20 μMSer/Thr 18 peptide: 2 μMReaction time: 90 minutes.

Row | Structure (SMILES) | IC50
1 | C(#CC1CCOCC1)c1ncc(-c2ccc3cnc(OC4CCNCC4)cc3c2)s1 [US20250066318, Compound I.98] | 550 nM
2 | Cc1ncc2ccc(-c3cncs3)cc2c1O[C@H]1C[C@H](O)C1 [US20250066318, Compound I.80] | < 10 nM
3 | C(#CC1CCOCC1)c1ncc(-c2ccc3cncc(OC4CCNCC4)c3c2)s1 [US20250066318, Compound I.95] | < 10 nM
4 | Cn1cc(-c2ccc3cnc(C#CC4CCOCC4)cc3c2)cn1 [US20250066318, Compound I.108] | 55 nM
5 | CN(C)[C@H]1CC[C@@H](Oc2cc3cc(-c4cnc(C#CC5CCOCC5)s4)ccc3cn2)CC1 [US20250066318, Compound I.103] | > 1000 nM
6 | Cn1cc(-c2ccc3cnc(NC(=O)OC4(C)CC4)cc3c2)cn1 [US20250066318, Compound I.83] | < 10 nM
7 | O=C(O)[C@H]1C[C@@H](Nc2c(-c3cncs3)ccc3cnccc23)C1 [US20250066318, Compound I.68] | 550 nM
8 | CN1CCC(c2cn3ncc(-c4ccc(C#N)cc4)c3c(=O)n2C)CC1 [US20250066318, Compound II.45] | 625 nM
9 | Cc1ncc2ccc(-c3cnn(C)c3)cc2c1O[C@H]1C[C@@H](O)C1 [US20250066318, Compound I.81] | < 10 nM
10 | CC(=O)N1CCC(Oc2cncc3ccc(-c4cnn5cc(C(F)(F)F)ccc45)cc23)CC1 [US20250066318, Compound I.86] | < 10 nM
11 | CC(=O)N1CCN(Cc2cncc3ccc(-c4cnn5cc(C(F)(F)F)ccc45)cc23)CC1 [US20250066318, Compound I.89] | 55 nM
12 | Cn1cc(C#Cc2ncc(-c3ccc4cnccc4c3)s2)ccc1=O [US20250066318, Compound I.92] | < 10 nM
13 | Cc1c(F)ncc2ccc(-c3cnn(C)c3)cc12 [US20250066318, Compound I.64] | 55 nM
14 | O=C(O)C1CCN(Cc2cncc3ccc(-c4cnn5cc(C(F)(F)F)ccc45)cc23)CC1 [US20250066318, Compound I.88] | 550 nM
15 | O=C(O)[C@H]1C[C@H](Nc2c(-c3cncs3)ccc3cnccc23)C1 [US20250066318, Compound I.67] | > 1000 nM
16 | COc1cncc2ccc(-c3cnn4cc(-c5ccc(=O)n(C)c5)cnc34)cc12 [US20250066318, Compound I.93] | < 10 nM
17 | O=C(O)[C@H]1C[C@H](Oc2c(-c3cncs3)ccc3cnccc23)C1 [US20250066318, Compound I.70] | 550 nM
18 | O=C(O)[C@H]1C[C@@H](Nc2ncc(-c3ccc4cnccc4c3)s2)C1 [US20250066318, Compound I.71] | 55 nM
19 | O=C(O)[C@H]1C[C@@H](Oc2c(-c3cncs3)ccc3cnccc23)C1 [US20250066318, Compound I.69] | 550 nM
20 | CN(C)[C@H]1CC[C@H](Oc2cc3cc(-c4cnc(C#CC5CCOCC5)s4)ccc3cn2)CC1 [US20250066318, Compound I.102] | > 1000 nM
21 | O=C(O)C1CN(c2cn3ncc(-c4ccc5cnccc5c4)c3cn2)C1 [US20250066318, Compound I.73] | < 10 nM
22 | Cc1ncc2ccc(-c3cnn(C)c3)cc2c1OC1CN(C)C1 [US20250066318, Compound I.78] | 55 nM

Row | Structure (SMILES) | IC50
23 | CC(=O)N1CCN(Cc2cc3cc(-c4cnc(C#CC5CCOCC5)s4)ccc3cn2)CC1 [US20250066318, Compound I.101] | > 1000 nM
24 | N#Cc1cccc(Oc2cncc3ccc(-c4cnc5ccccn45)cc23)c1 [US20250066318, Compound I.6] | 550 nM
25 | CN1CCC(Oc2cc3cc(-c4cnc(C#CC5CCOCC5)s4)ccc3cn2)CC1 [US20250066318, Compound I.100] | 550 nM
26 | CN1CC=C(c2cn3ncc(-c4ccc(C#N)cc4)c3c(=O)[nH]2)CC1 [US20250066318, Compound II.46] | 175 nM
27 | CS(=O)(=O)N1CCC(Oc2cncc3ccc(-c4cnn5cc(C(F)(F)F)ccc45)cc23)CC1 [US20250066318, Compound I.85] | < 10 nM
28 | CC(=O)N1CCC(Oc2cncc3ccc(-c4cnc(C#CC5CCOCC5)s4)cc23)CC1 [US20250066318, Compound I.96] | < 10 nM
29 | N#Cc1cncc2ccc(-c3cnc(C#CC4CCOCC4)s3)cc12 [US20250066318, Compound I.94] | 550 nM
30 | O=C(O)C1CC(Nc2cc3cc(-c4cncs4)ccc3cn2)C1 (stereo not drawn) [US20250066318, Compound I.74] | 55 nM
31 | CC(C)CN1CCC(C#Cc2ncc(-c3ccc4cnc(Cl)cc4c3)s2)CC1 [US20250066318, Compound I.104] | 55 nM
32 | CN1CCc2c(c(-c3cnc4c(-c5ccc(C#N)cc5)cnn4c3)cn(C)c2=O)C1 [US20250066318, Compound II.43] | > 1000 nM
33 | Cc1ncc2ccc(-c3cncs3)cc2c1OC1CN(C)C1 [US20250066318, Compound I.76] | 550 nM
34 | Cc1ncc2ccc(-c3cncs3)cc2c1OC1CNC1 [US20250066318, Compound I.75] | 55 nM
35 | Cc1ncc2ccc(-c3cnn(C)c3)cc2c1OC1CNC1 [US20250066318, Compound I.77] | 55 nM
36 | CN1CCC(C#Cc2cc3cc(-c4cnn(C)c4)ccc3cn2)CC1 [US20250066318, Compound I.107] | 55 nM
37 | CC(=O)N1CCC(Oc2cc3cc(-c4cnc(C#CC5CCOCC5)s4)ccc3cn2)CC1 [US20250066318, Compound I.99] | > 1000 nM
38 | CC(C)CN1CCC(C(=O)Nc2ncc(-c3ccc4cnc(C5CC5)cc4c3)s2)CC1 [US20250066318, Compound I.105] | 55 nM
39 | Cc1ncc2ccc(-c3cncs3)cc2c1O[C@H]1C[C@@H](O)C1 [US20250066318, Compound I.79] | < 10 nM
40 | Cn1c(C2CCNCC2)cn2ncc(-c3ccc(C#N)cc3)c2c1=O [US20250066318, Compound II.44] | 625 nM
41 | Cn1cc(-c2ccc3cnc(C#CC4CCNCC4)cc3c2)cn1 [US20250066318, Compound I.106] | 55 nM
42 | Cc1ncc2ccc(-c3cnn(C)c3)cc2c1O[C@H]1C[C@H](O)C1 [US20250066318, Compound I.82] | < 10 nM
43 | CN1CCC(Oc2cncc3ccc(-c4cnc(C#CC5CCOCC5)s4)cc23)CC1 [US20250066318, Compound I.97] | < 10 nM
